This is an account of results in ChEMBL document CHEMBL5726212, “Substituted pyridines as inhibitors of human immunodeficiency virus replication” (2019).

The EC50 is the concentration that produces a half-maximal response.

Molecules are shown by their SMILES.

The experiment in a line: Inhibition of HIV replication: A recombinant NL-RLuc proviral clone was constructed in which a section of the nef gene from NL4-3 was replaced with the Renilla Luciferase gene. This virus is fully infectious and can undergo multiple cycles of replication in cell culture. In addition, the luciferous reporter provides a simple and easy method for quantitating the extent of virus growth and consequently, the antiviral activity of test compounds. The plasmid pNLRLuc contains the proviral NL-Rluc DNA cloned into pUC18 at the PvuII site. The NL-RLuc virus was prepared by transfection of 293T cells with the plasmid pNLRLuc. Transfections were performed using the LipofectAMINE PLUS kit from Invitrogen (Carlsbad, Calif.) according to the manufacturer and the virus generated was titered in MT-2 cells. For susceptibility analyses, the titrated virus was used to infect MT-2 cells in the presence of compound, and after 5 days of incubation, cells were processed and quantitated for virus growth by the amount of expressed luciferase. Assay media was RPMI 1640 supplemented with 10% heat inactivated fetal bovine serum (FBS), 100 units/ml penicillin G/100 units/ml streptomycin, 10 mM HEPES buffer pH 7.55 and 2 mM L-glutamine. The results from at least 2 experiments were used to calculate the EC50 values. Luciferase was quantitated using the Dual Luciferase kit from Promega (Madison, Wis.). Susceptibility of viruses to compounds was determined by incubation in the presence of serial dilutions of the compound. The 50% effective concentration (EC50) was calculated by using the exponential form of the median effect equation where (Fa)=1/[1+(ED50/drug conc.)m] (Johnson V A, Byington R T. Infectivity Assay. In Techniques in HIV Research. ed. Aldovini A, Walker B D. 71-76. New York: Stockton Press.1990). The format is cell-based.

`Cc1ccc(CN2CCc3cc(-c4c(C)nc(C)c([C@H](OC(C)(C)C)C(=O)O)c4N4CCC(C)(C)CC4)ccc3C2)cc1C`: the EC50 was less than 100 nM. The EC50 (HEK-293T) was less than 100 nM.

`COc1cc(F)cc(F)c1CN1CCc2cc(-c3c(C)nc(C)c([C@H](OC(C)(C)C)C(=O)O)c3N3CCC(C)(C)CC3)ccc2C1`: the EC50 is less than 100 nM. The EC50 (HEK-293T) is less than 100 nM.

As to `COc1cc(F)c(CN2CCc3cc(-c4c(C)nc(C)c([C@H](OC(C)(C)C)C(=O)O)c4N4CCC(C)(C)CC4)ccc3C2)c(F)c1`, the EC50 was less than 100 nM. The EC50 (HEK-293T) was less than 100 nM.
